Literature values, collected in US20030077758A1, “Myc repressor modulation to treat aging-related disorders” (priority 2000, published 2003).

Target: AP-2 (Homo sapiens, UniProt P05549)
Conditions: in vitro; apparently by oxidizing cysteine residues in the AP-2 DNA binding domain

Sequence of AP-2 (P05549 whole entry, species assumed, the tested form may be a part): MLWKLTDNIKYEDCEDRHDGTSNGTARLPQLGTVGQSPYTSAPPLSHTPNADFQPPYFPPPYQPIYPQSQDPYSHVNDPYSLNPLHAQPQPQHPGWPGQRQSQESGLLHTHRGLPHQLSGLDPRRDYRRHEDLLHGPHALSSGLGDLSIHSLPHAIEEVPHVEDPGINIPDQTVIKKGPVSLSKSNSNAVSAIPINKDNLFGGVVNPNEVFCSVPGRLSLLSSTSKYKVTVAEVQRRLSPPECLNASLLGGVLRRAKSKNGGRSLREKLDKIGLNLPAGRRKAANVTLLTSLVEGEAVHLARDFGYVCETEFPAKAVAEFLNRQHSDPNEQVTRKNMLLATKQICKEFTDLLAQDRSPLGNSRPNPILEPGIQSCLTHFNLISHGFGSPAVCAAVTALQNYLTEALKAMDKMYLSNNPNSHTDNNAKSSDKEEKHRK

| Compound | AP-2 DNA binding activity |
| --- | --- |
| CN(C)C(=O)/N=N/C(=O)N(C)C [diamide] | inhibited |
| OO [hydrogen peroxide] | inhibited |
